Measurements from ChEMBL document CHEMBL6153040, “Discovery of the salicylaldehyde-based compound DDO-02267 as a lysine-targeting covalent inhibitor of ALKBH5” (Eur J Med Chem, 2025).
Activity calls are given as the source filed them. No cut-off for these calls is given here.

Experiments:
[1] = molecular target: T1, RNA demethylase ALKBH5 (Homo sapiens, UniProt Q6P6C2); experiment: Inhibition of ALKBH5 (66 to 292 residues) (unknown origin) extracted from Escherichia coli BL21 (DE3) cells using m6A ssDNA as substrate measured after 240 mins by fluorescence polarization assay
Target sequence in this assay (Q6P6C2 whole entry, the tested form may be a part): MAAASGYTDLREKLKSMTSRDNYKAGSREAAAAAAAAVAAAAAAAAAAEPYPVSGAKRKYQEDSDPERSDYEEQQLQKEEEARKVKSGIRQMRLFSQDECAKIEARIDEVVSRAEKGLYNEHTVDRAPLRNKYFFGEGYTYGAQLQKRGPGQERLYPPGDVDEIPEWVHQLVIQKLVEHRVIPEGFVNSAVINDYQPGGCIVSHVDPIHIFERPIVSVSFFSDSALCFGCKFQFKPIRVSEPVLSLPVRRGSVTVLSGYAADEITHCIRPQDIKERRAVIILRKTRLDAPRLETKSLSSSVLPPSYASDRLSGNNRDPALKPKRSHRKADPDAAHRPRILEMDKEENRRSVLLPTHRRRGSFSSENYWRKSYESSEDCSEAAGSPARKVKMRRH

[2] = molecular target: T1, RNA demethylase ALKBH5; experiment: Binding affinity to ALKBH5 (66 to 292 residues) (unknown origin) extracted from Escherichia coli BL21 (DE3) cells assessed as dissociation constant by ITC analysis
Target sequence in this assay (Q6P6C2 whole entry, the tested form may be a part): as above

[3] = test system: MOLM-13; experiment: Induction of apoptosis in human MOLM-13 cells assessed as viable cells at 40 uM incubated for 72 hrs by Annexin V FITC/PI staining based flow cytometry analysis (reference value: 89.65%); assay type: functional; details: read-out: Activity
[4] = molecular target: T1, RNA demethylase ALKBH5; experiment: Inhibition of ALKBH5 (66 to 292 residues) (unknown origin) demethylase activity extracted from Escherichia coli BL21 (DE3) cells at 200 uM preincubated for 3 hrs and measured after compound washout by small molecule dilution method
Target sequence in this assay (Q6P6C2 2-394 limits assumed): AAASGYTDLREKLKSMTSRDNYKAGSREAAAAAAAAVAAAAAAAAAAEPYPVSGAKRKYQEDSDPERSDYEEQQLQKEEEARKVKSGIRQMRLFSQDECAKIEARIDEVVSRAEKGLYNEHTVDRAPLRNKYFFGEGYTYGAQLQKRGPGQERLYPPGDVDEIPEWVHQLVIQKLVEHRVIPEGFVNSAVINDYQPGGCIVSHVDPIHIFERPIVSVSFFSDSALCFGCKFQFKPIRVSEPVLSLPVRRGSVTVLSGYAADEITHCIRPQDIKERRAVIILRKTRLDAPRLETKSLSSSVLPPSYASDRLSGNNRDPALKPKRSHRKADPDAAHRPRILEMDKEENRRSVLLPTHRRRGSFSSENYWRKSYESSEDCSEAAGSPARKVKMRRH

[5] = Selectivity ratio of IC50 for FTO (32 to 505 residues) (unknown origin) extracted from Escherichia coli BL21 (DE3) cells to IC50 for ALKBH5 (66 to 292 residues) (unknown origin) extracted from Escherichia coli BL21 (DE3) cells by fluorescence polarization assay
[6] = molecular target: Alpha-ketoglutarate-dependent dioxygenase FTO (Homo sapiens, UniProt Q9C0B1); experiment: Inhibition of FTO (32 to 505 residues) (unknown origin) extracted from Escherichia coli BL21 (DE3) cells by fluorescence polarization assay
[7] = molecular target: T1, RNA demethylase ALKBH5; experiment: Inhibition of ALKBH5 (66 to 292 residues) (unknown origin) extracted from Escherichia coli BL21 (DE3) cells using m6A ssDNA as substrate at 5 uM incubated for 2 hrs by TBE-PAGE based restriction enzyme digestion assay
Target sequence in this assay (Q6P6C2 2-394 limits assumed): as above

[8] = test system: MOLM-13; experiment: Induction of apoptosis in human MOLM-13 cells assessed as early apoptotic cells at 80 uM incubated for 72 hrs by Annexin V FITC/PI staining based flow cytometry analysis (reference value: 4.32%); assay type: functional

Alpha-ketoglutarate-dependent dioxygenase FTO, sequence (Q9C0B1 whole entry, the tested form may be a part): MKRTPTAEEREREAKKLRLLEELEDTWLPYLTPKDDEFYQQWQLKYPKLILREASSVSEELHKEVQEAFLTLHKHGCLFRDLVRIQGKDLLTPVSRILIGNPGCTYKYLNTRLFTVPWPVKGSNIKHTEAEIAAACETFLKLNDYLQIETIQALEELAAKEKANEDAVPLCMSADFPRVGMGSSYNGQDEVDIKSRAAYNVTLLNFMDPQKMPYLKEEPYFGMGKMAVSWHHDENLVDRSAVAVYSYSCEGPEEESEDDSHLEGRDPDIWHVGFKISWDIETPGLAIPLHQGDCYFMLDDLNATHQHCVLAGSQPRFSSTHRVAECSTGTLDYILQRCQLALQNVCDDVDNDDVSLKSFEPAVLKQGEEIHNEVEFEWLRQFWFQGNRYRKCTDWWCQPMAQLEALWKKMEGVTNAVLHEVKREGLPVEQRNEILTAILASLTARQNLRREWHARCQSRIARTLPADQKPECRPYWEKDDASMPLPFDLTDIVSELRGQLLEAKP

`O=Cc1cc(S(=O)(=O)NC(=O)c2cc(C(=O)O)ccn2)c2ccccc2c1O` showed an IC50 [1] of 260 nM, a Kd [2] of 2800 nM and a viability at 40 µM [3] of 83%. For the same molecule, the inhibition [4] was “Active”, the Ratio IC50 [5] was 20 and the IC50 [6] was 14200 nM. The inhibition [7] was “Active” and the Activity [8] was 9.16%.
